Data on 42 molecules can be found in US8101768B2, “Cyclic amine compound and pest control agent” (Nippon Soda Co., Ltd., priority 2004, dated 2012).

Assay [1] relates to organophosphorous agent resistant two-spotted spider mites. Put plainly: Effect on Two-spotted Spider Mite (spray on kidney bean leaves). Format: in vivo. The following applies: 125 ppm, water dispersible powder of Formulation Example 1 sprayed, 17 female adults, 25° C., 65% humidity, 3 days. The method in brief:
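Kidney bean first leaves bearing 17 adult female organophosphate-resistant mites were sprayed with a water-dispersible powder formulation at 125 ppm. Held 3 days at 25 °C, 65% humidity, then adult mortality scored; run in duplicate.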

In assay [2] the test system is acaricide resistant citrus red mites. Put plainly: Effect on Citrus Red Mite (spray on mandarin orange leaves). The following applies: 31 ppm, emulsifiable concentrate of Formulation Example 2 sprayed, 10 female adults, 25° C., 65% humidity. The assay is classed as in vivo. As to the method: Effect on Citrus Red Mite
10 female adults of acaricide resistant citrus red mites were inoculated onto leaves of a mandarin orange placed on dishes, onto which each of liquid agents, diluted with water so as to adjust the respective concentration of the chemical compounds to 31 ppm according to the formulation of the emulsifiable concentrate shown in the aforementioned Formulation Example 2, was sprayed by using a rotating sparge tower. After they were left in a thermostatic chamber at 25° C. in 65% humidity for 3 days, and were then removed from the dishes, eggs laid for 3 days were investigated whether they could grow to adults or not on the eleventh day. As the results, the following chemical compounds killed 100% of the adults. 1-13, 1-15, 1-22, 1-27, 1-45, 1-54, 1-59, 1-63, 1-66, 1-69, 1-71, 1-72, 1-75, 1-80, 1-88, 1-89, 1-92, 1-93, 1-94, 1-97, 1-98, 1-100, 1-102, 1-105, 1-108, 1-133, 1-136, 1-142, 1-153, 1-181, 1-183, 1-186, 1-187, 1-188, 1-189, 1-190, 1-191,

`FC(F)c1ccc(O[C@@H]2[C@@H]3CC[C@H]2CN(c2ccc(C(F)(F)F)cn2)C3)c(OCC2CC2)c1` [5-118]: the “rate of killed adults” value in assay [1] is recorded as 100%. In addition, the “killed ... of the adults (eggs laid for 3 days investigated whether they could grow to adults on the eleventh day)” value (“killed ... of the adults” for short) in assay [2] came to 100%.

Regarding `CCCOCc1cc(C(F)(F)F)ccc1OC1C2CCC1CN(c1ccc(C(F)(F)F)cn1)C2` (stereo not shown) [5-217], the “rate of killed adults” value in assay [1] was determined as 100%. Moreover, the “killed ... of the adults” value in assay [2] was 100%.

`COCOc1cc(C(F)(F)F)ccc1OC1C2CCCC1CN(c1ccc(C(F)(F)F)cn1)C2` (stereo not drawn) [7-100, 9β-[2-methoxymethoxy-4-(trifluoromethyl)phenoxy]-3-[5-(trifluoromethyl)-2-pyridyl]-3-azabicyclo[3.3.1]nonane]: the “rate of killed adults” value in assay [1] amounted to 100%. The “killed ... of the adults” value in assay [2] was 100%.

As for `CCS(=O)(=O)Oc1cc(C(F)(F)F)ccc1OC1C2CCC1CN(c1ccc(C(F)(F)F)cn1)C2` (stereo not shown) [5-162], the “rate of killed adults” value in assay [1] amounted to 100%. Besides, the “killed ... of the adults” value in assay [2] came out at 100%.

`CCOc1cc(C(F)(F)F)ccc1O[C@@H]1[C@@H]2CC[C@H]1CN(c1ccc(C(F)(F)F)cn1)C2` [5-90]: the “rate of killed adults” value in assay [1] is listed as 100%. The “killed ... of the adults” value in assay [2] came to 100%.

In the case of `CC(C)OCc1cc(C(F)(F)F)ccc1OC1C2CCC1CN(c1ccc(C(F)(F)F)cn1)C2` (stereo not shown) [5-225], the “rate of killed adults” value in assay [1] was 100%. Further, the “killed ... of the adults” value in assay [2] was 100%.

In the case of `COC(=O)c1cc(C(F)(F)F)ccc1O[C@@H]1[C@@H]2CC[C@H]1CN(c1ccc(C(F)(F)F)cn1)C2` [5-243], the “rate of killed adults” value in assay [1] is reported as 100%. Besides, in assay [2], the “killed ... of the adults” value is listed as 100%.

Take `CC1CNC(c2cc(C(F)(F)F)ccc2O[C@@H]2[C@@H]3CC[C@H]2CN(c2ccc(C(F)(F)F)cn2)C3)O1` (stereo partly shown) [5-260]: the “rate of killed adults” value in assay [1] is 100%. For the same molecule, in assay [2], the “killed ... of the adults” value was 100%.

For the molecule `COCOC(C)c1cc(C(F)(F)F)ccc1O[C@@H]1[C@@H]2CC[C@H]1CN(c1ccc(C(F)(F)F)cn1)C2` (stereo partly shown) [5-73], the “rate of killed adults” value in assay [1] came to 100%. Also, in assay [2], the “killed ... of the adults” value is listed as 100%.

In the case of `CCCOc1cc(C(F)(F)F)ccc1OC1CCN(c2ccc(C(F)(F)F)cn2)CC1` [1-92], in assay [1], the “rate of killed adults” value was found to be 100%. In assay [2], the “killed ... of the adults” value is listed as 100%.

Turning to `O=S(=O)(Oc1cc(C(F)(F)F)ccc1OC1C2CCC1CN(c1ccc(C(F)(F)F)cn1)C2)C(F)(F)F` (stereo not shown) [5-234], the “rate of killed adults” value in assay [1] stood at 100%. Moreover, the “killed ... of the adults” value in assay [2] turned out to be 100%.

As for `CC(C)OC(=O)c1cc(C(F)(F)F)ccc1O[C@@H]1[C@@H]2CC[C@H]1CN(c1ccc(C(F)(F)F)cn1)C2` [5-245], the “rate of killed adults” value in assay [1] was determined as 100%. In addition, the “killed ... of the adults” value in assay [2] was 100%.

Regarding `CCOc1cc(C(F)(F)F)ccc1OC1CCN(c2ccc(C(F)(F)F)cn2)CC1` [1-89], the “rate of killed adults” value in assay [1] came out at 100%. Further, in assay [2], the “killed ... of the adults” value is on record as 100%.

Regarding `C=CCOc1cc(C(F)(F)F)ccc1OC1CCN(c2ccc(C(F)(F)F)cn2)CC1` [1-142], in assay [1], the “rate of killed adults” value was 100%. In assay [2], the “killed ... of the adults” value amounted to 100%.

Regarding `COC(C)OCc1cc(C(F)(F)F)ccc1OC1CCN(c2ccc(C(F)(F)F)cn2)CC1C` (stereo not shown) [1-188], the “rate of killed adults” value in assay [1] is given as 100%. Further, the “killed ... of the adults” value in assay [2] turned out to be 100%.

For the molecule `CC(C)COc1cc(C(F)(F)F)ccc1O[C@@H]1[C@@H]2CC[C@H]1CN(c1ccc(C(F)(F)F)cn1)C2` [5-105], the “rate of killed adults” value in assay [1] is listed as 100%. In addition, the “killed ... of the adults” value in assay [2] turned out to be 100%.

For the molecule `COc1cc(C(F)(F)F)ccc1OC1CCN(c2ccc(C(F)(F)F)cn2)CC1` [1-88], the “rate of killed adults” value in assay [1] worked out at 100%. The “killed ... of the adults” value in assay [2] was determined as 100%.

Take `COCOCc1cc(C(F)(F)F)ccc1O[C@@H]1[C@@H]2CC[C@H]1CN(c1ccc(C(F)(F)F)cn1)C2` [5-69]: in assay [1], the “rate of killed adults” value was found to be 100%. The “killed ... of the adults” value in assay [2] stood at 100%.

As for `COCc1cc(C(F)(F)F)ccc1OC1CCN(c2ccc(C(F)(F)F)cn2)CC1` [1-63], the “rate of killed adults” value in assay [1] came out at 100%. In assay [2], the “killed ... of the adults” value was 100%.

With `COCCOc1cc(C(F)(F)F)ccc1O[C@@H]1[C@@H]2CC[C@H]1CN(c1ccc(C(F)(F)F)cn1)C2` [5-124], the “rate of killed adults” value in assay [1] is reported as 100%. Further, the “killed ... of the adults” value in assay [2] turned out to be 100%.

`FC(F)(F)c1ccc(N2CC3CCC(C2)C3Oc2ccc(C(F)(F)F)cc2OCC2OCCO2)nc1` (stereo not shown) [5-203]: the “rate of killed adults” value in assay [1] is recorded as 100%. The “killed ... of the adults” value in assay [2] is recorded as 100%.

As for `CCCOc1cc(C(F)(F)F)ccc1OC1CCN(c2ccc(C(F)(F)F)cn2)C(C)C1` (stereo not shown) [1-93, 2-methyl-4-[2-propoxy-4-(trifluoromethyl)phenoxy]-1-[5-(trifluoromethyl)-2-pyridyl]piperidine], the “rate of killed adults” value in assay [1] turned out to be 100%. The “killed ... of the adults” value in assay [2] is listed as 100%.

For `CC(C)CC(O)c1cc(C(F)(F)F)ccc1OC1C2CCC1CN(c1ccc(C(F)(F)F)cn1)C2` (stereo not shown) [5-239], the “rate of killed adults” value in assay [1] was found to be 100%. The “killed ... of the adults” value in assay [2] was determined as 100%.

With `C#CCOc1cc(C(F)(F)F)ccc1OC1C2CCC1CN(c1ccc(C(F)(F)F)cn1)C2` (stereo not shown) [5-177], the “rate of killed adults” value in assay [1] was 100%. Moreover, in assay [2], the “killed ... of the adults” value worked out at 100%.

`FC(F)(Br)Oc1ccc(OC2CCN(c3ccc(C(F)(F)F)cn3)CC2)cc1` [1-136]: the “rate of killed adults” value in assay [1] was found to be 100%. Further, the “killed ... of the adults” value in assay [2] came to 100%.

As to `FC(F)(F)c1ccc(N2C[C@H]3CC[C@@H](C2)[C@@H]3Oc2ccc(C(F)(F)F)cc2Br)nc1` [5-22], the “rate of killed adults” value in assay [1] is reported as 100%. The “killed ... of the adults” value in assay [2] came to 100%.

`FC(F)(F)c1ccc(N2CC3CCC(C2)C3Oc2ccc(C(F)(F)F)cc2C2CCCO2)nc1` (stereo not shown) [5-237]: the “rate of killed adults” value in assay [1] turned out to be 100%. Also, in assay [2], the “killed ... of the adults” value was 100%.

As to `COCOc1cc(C(F)(F)F)ccc1O[C@@H]1[C@@H]2CC[C@H]1CN(c1ccc(C(F)(F)F)cn1)C2` [5-110], the “rate of killed adults” value in assay [1] turned out to be 100%. The “killed ... of the adults” value in assay [2] turned out to be 100%.

As to `FC(F)(F)c1ccc(N2C3CCC2CC(Oc2ccc(C(F)(F)F)cc2OCC=CCl)C3)nc1` (mixture of isomers) [2-148], the “rate of killed adults” value in assay [1] was 100%.

With `Cc1ccc(N2CC3CCC(C2)C3Oc2ccc(C(F)(F)F)cc2OC2CC2(Cl)Cl)nc1` (stereo not shown) [5-210], the “rate of killed adults” value in assay [1] is given as 100%.

With `C#CCOc1cc(C(F)(F)F)ccc1OC1CCN(c2ccc(C(F)(F)F)cn2)CC1` [1-163], the “rate of killed adults” value in assay [1] amounted to 100%.

Regarding `CCC(C)Oc1cc(C(F)(F)F)ccc1OC1CC2CCC(C1)N2c1ccc(C(F)(F)F)cn1` (stereo not shown) [2-177], the “rate of killed adults” value in assay [1] was 100%.

In the case of `CCCOc1cc(C#N)ccc1OC1CC2CCC(C1)N2c1ccc(C(F)(F)F)cn1` (stereo not shown) [2-81], the “rate of killed adults” value in assay [1] is recorded as 100%.

Turning to `CON=C(C)COc1cc(C(F)(F)F)ccc1OC1C2CCC1CN(c1ccc(C(F)(F)F)cn1)C2` (stereo not shown) [5-184], the “rate of killed adults” value in assay [1] is 100%.

Consider `CCCNc1cc(C(F)(F)F)ccc1OC1CC2CCC(C1)N2c1ccc(C(F)(F)F)cn1` (stereo not shown) [2-160], for which, in assay [1], the “rate of killed adults” value worked out at 100%.

As to `C=C(Cl)COc1cc(C(F)(F)F)ccc1OC1CC2CCC(C1)N2c1ccc(C(F)(F)F)cn1` (stereo not shown) [2-183], the “rate of killed adults” value in assay [1] is reported as 100%.

Regarding `FC(F)(F)c1ccc(N2CCC(Oc3ccc(Br)cc3)CC2)nc1` [1-19], the “rate of killed adults” value in assay [1] was 100%.

As to `CC(C)=NOc1cc(C(F)(F)F)ccc1OC1CC2CCC(C1)N2c1ccc(C(F)(F)F)cn1` (stereo not drawn) [2-212, 3α-[2-isopropylideneaminoxy-4-(trifluoromethyl)phenoxy]-8-[5-(trifluoromethyl)-2-pyridyl]-8-azabicyclo[3.2.1]octane], in assay [1], the “rate of killed adults” value amounted to 100%.

On to `Cc1cc(F)ccc1OC1CCN(c2ccc(C(F)(F)F)cn2)CC1` [1-48], for which the “rate of killed adults” value in assay [1] is 100%.

Take `C=CCOc1cc(C(F)(F)F)ccc1OC1CC2CCC(C1)N2c1ccc(C(F)(F)F)cn1` (stereo not shown) [2-141]: the “rate of killed adults” value in assay [1] is on record as 100%.

For `CCCOc1cc(C(F)(F)F)ccc1OC1CC2CCC(C1)N2c1ccc(Cl)cn1` (stereo not shown) [2-85], the “rate of killed adults” value in assay [1] is reported as 100%.

`COC(C)(C)COc1cc(C(F)(F)F)ccc1OC1C2CCC1CN(c1ccc(C(F)(F)F)cn1)C2` (stereo not shown) [5-130]: the “rate of killed adults” value in assay [1] is 100%.
